PubChem BioAssay (NCI)
“And” between values parts separate entries of the source, which are not always exact repeats. Equal entries are not always repeated.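 The compound was tested at five concentrations on cells cultured in 96-well plates, with a 48-hour exposure period. GI50 is the concentration that inhibits growth by half. TGI: concentration producing complete growth inhibition.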

Test system: CAKI-1 renal
Assay: DTP human tumour cell line panel, 48 h

Row | Compound | GI50 | TGI
1 | CN1CCN(c2ccc3nc(-c4ccc(OCCCCN5CCN(CCCCN6C(=O)c7cccc8cccc(c78)C6=O)CC5)cc4)[nH]c3c2)CC1 | 73.1 µM | > 100 µM
2 | CC1=C(N2CC2)C(=O)c2ccccc2C1=O |  | 1.79 µM
3 | NC(=O)c1ccc(N(C(N)=O)c2c(F)cccc2F)nc1-c1ccc(F)cc1F | > 100 µM | > 100 µM
4 | Cc1ccc(S(=O)(=O)NC(CO)C(=O)O)cc1 (stereo not drawn) |  | > 100 µM
5 | H-QIYKKYRTWYRKAWKVLGKV-NH2 | 3.89 µM | 19 µM
6 | O=Cc1ccc(N2CCN(c3ccc(C=O)cc3)CC2)cc1 | 10.8 µM | 76.5 µM
7 | CN=C(N)N/N=C(\C)c1ccc2c(c1)Cc1ccccc1-2 | 2.5 µM | 8.82 µM
8 | Cc1cc(Nc2nc(-c3ccncc3)nc3ccccc23)n[nH]1 | 0.58 µM | > 100 µM
9 | COc1cc2c(cc1OCCCOc1ccc(-c3nc4ccc(N5CCN(C)CC5)cc4[nH]3)cc1)N=C[C@@H]1CCCN1C2=O | < 0.01 µM | < 0.01 µM
10 | O=C(/C=C/c1ccccc1)CCC1C(=O)NC(=S)NC1=O |  | > 100 µM

Test system: UACC-62 melanoma
Assay: DTP human tumour cell line panel, 48 h

Row | Compound | GI50 | TGI
11 | CN1CCN(c2ccc3nc(-c4ccc(OCCCCN5CCN(CCCCN6C(=O)c7cccc8cccc(c78)C6=O)CC5)cc4)[nH]c3c2)CC1 | 40.7 µM | > 100 µM
12 | CC1=C(N2CC2)C(=O)c2ccccc2C1=O |  | 2.05 µM
13 | NC(=O)c1ccc(N(C(N)=O)c2c(F)cccc2F)nc1-c1ccc(F)cc1F | > 100 µM | > 100 µM
14 | Cc1ccc(S(=O)(=O)NC(CO)C(=O)O)cc1 (stereo not drawn) |  | > 100 µM
15 | H-QIYKKYRTWYRKAWKVLGKV-NH2 | 2.08 µM | 4.74 µM
16 | O=Cc1ccc(N2CCN(c3ccc(C=O)cc3)CC2)cc1 | 9.36 µM | > 100 µM
17 | CN=C(N)N/N=C(\C)c1ccc2c(c1)Cc1ccccc1-2 | 1.5 µM | 2.86 µM
18 | COc1cc2c(cc1OCCCOc1ccc(-c3nc4ccc(N5CCN(C)CC5)cc4[nH]3)cc1)N=C[C@@H]1CCCN1C2=O | < 0.0133 µM | < 0.0201 µM
19 | O=C(c1ccc2ccccc2c1)c1c(C(F)(F)F)n([O-])c2ccc(F)cc2[n+]1=O | 1.6 µM | 2.95 µM
20 | COc1ccc2c(c1)/C(=N/OC(C)=O)c1c-2cnc2ccccc12 | 16.6 µM | 36.3 µM
21 | Cn1cc(-c2nc(N[C@@H]3CCCC[C@@H]3N)c(F)c3c2C(=O)NC3)cn1 | 10.4 µM and 13.1 µM | > 100 µM
22 | O=C(/C=C/c1ccccc1)CCC1C(=O)NC(=S)NC1=O |  | > 100 µM
23 | O=C(Nc1nc2ccccc2s1)c1cc(-c2ccc(F)cc2)n2nc(-c3ccccc3)cc2n1 | 3.79 µM | > 100 µM

Test system: OVCAR-5 ovarian
Assay: DTP human tumour cell line panel, 48 h

Row | Compound | GI50 | TGI
24 | CN1CCN(c2ccc3nc(-c4ccc(OCCCCN5CCN(CCCCN6C(=O)c7cccc8cccc(c78)C6=O)CC5)cc4)[nH]c3c2)CC1 | > 100 µM | > 100 µM
25 | CC1=C(N2CC2)C(=O)c2ccccc2C1=O |  | 1.69 µM
26 | NC(=O)c1ccc(N(C(N)=O)c2c(F)cccc2F)nc1-c1ccc(F)cc1F | > 100 µM | > 100 µM
27 | Cc1ccc(S(=O)(=O)NC(CO)C(=O)O)cc1 (stereo not drawn) |  | > 100 µM
28 | H-QIYKKYRTWYRKAWKVLGKV-NH2 | 8.79 µM | 22.5 µM
29 | O=Cc1ccc(N2CCN(c3ccc(C=O)cc3)CC2)cc1 | 2.6 µM | 8.09 µM
30 | CN=C(N)N/N=C(\C)c1ccc2c(c1)Cc1ccccc1-2 | 1.65 µM | 3.96 µM
31 | Cc1cc(Nc2nc(-c3ccncc3)nc3ccccc23)n[nH]1 | > 100 µM | > 100 µM
32 | COc1cc2c(cc1OCCCOc1ccc(-c3nc4ccc(N5CCN(C)CC5)cc4[nH]3)cc1)N=C[C@@H]1CCCN1C2=O | < 0.01 µM | 
33 | O=C(c1ccc2ccccc2c1)c1c(C(F)(F)F)n([O-])c2ccc(F)cc2[n+]1=O | 1.78 µM | 3.18 µM
34 | COc1ccc2c(c1)/C(=N/OC(C)=O)c1c-2cnc2ccccc12 | 21.9 µM | 55.6 µM
35 | Cn1cc(-c2nc(N[C@@H]3CCCC[C@@H]3N)c(F)c3c2C(=O)NC3)cn1 | 7.14 µM and 8.43 µM | > 100 µM
36 | O=C(/C=C/c1ccccc1)CCC1C(=O)NC(=S)NC1=O |  | > 100 µM

Test system: UACC-257 melanoma
Assay: DTP human tumour cell line panel, 48 h

Row | Compound | GI50 | TGI
37 | CN1CCN(c2ccc3nc(-c4ccc(OCCCCN5CCN(CCCCN6C(=O)c7cccc8cccc(c78)C6=O)CC5)cc4)[nH]c3c2)CC1 | 30.3 µM | 74.7 µM
38 | CC1=C(N2CC2)C(=O)c2ccccc2C1=O |  | 1.94 µM
39 | NC(=O)c1ccc(N(C(N)=O)c2c(F)cccc2F)nc1-c1ccc(F)cc1F | > 100 µM | > 100 µM
40 | Cc1ccc(S(=O)(=O)NC(CO)C(=O)O)cc1 (stereo not drawn) |  | > 100 µM
41 | H-QIYKKYRTWYRKAWKVLGKV-NH2 | 13.8 µM | 51.6 µM
42 | O=Cc1ccc(N2CCN(c3ccc(C=O)cc3)CC2)cc1 | > 100 µM | > 100 µM
43 | CN=C(N)N/N=C(\C)c1ccc2c(c1)Cc1ccccc1-2 | 1.96 µM | 3.74 µM
44 | Cc1cc(Nc2nc(-c3ccncc3)nc3ccccc23)n[nH]1 | 48 µM | > 100 µM
45 | O=C(c1ccc2ccccc2c1)c1c(C(F)(F)F)n([O-])c2ccc(F)cc2[n+]1=O | 1.74 µM | 3.2 µM
46 | COc1ccc2c(c1)/C(=N/OC(C)=O)c1c-2cnc2ccccc12 | 61.1 µM | > 100 µM
47 | Cn1cc(-c2nc(N[C@@H]3CCCC[C@@H]3N)c(F)c3c2C(=O)NC3)cn1 | 19.4 µM and 23.9 µM | 98.6 µM and > 88.5 µM
48 | O=C(/C=C/c1ccccc1)CCC1C(=O)NC(=S)NC1=O |  | > 100 µM

Test system: A549 NSCLC
Assay: DTP human tumour cell line panel, 48 h

Row | Compound | GI50 | TGI
49 | CN1CCN(c2ccc3nc(-c4ccc(OCCCCN5CCN(CCCCN6C(=O)c7cccc8cccc(c78)C6=O)CC5)cc4)[nH]c3c2)CC1 | > 100 µM | > 100 µM
50 | CC1=C(N2CC2)C(=O)c2ccccc2C1=O |  | 2.17 µM
51 | NC(=O)c1ccc(N(C(N)=O)c2c(F)cccc2F)nc1-c1ccc(F)cc1F | > 100 µM | > 100 µM
52 | Cc1ccc(S(=O)(=O)NC(CO)C(=O)O)cc1 (stereo not drawn) |  | > 100 µM
53 | H-QIYKKYRTWYRKAWKVLGKV-NH2 | 12.7 µM | 47.7 µM
54 | O=Cc1ccc(N2CCN(c3ccc(C=O)cc3)CC2)cc1 | 40.1 µM | > 100 µM
55 | Cc1cc(Nc2nc(-c3ccncc3)nc3ccccc23)n[nH]1 | 3.59 µM | > 100 µM
56 | COc1cc2c(cc1OCCCOc1ccc(-c3nc4ccc(N5CCN(C)CC5)cc4[nH]3)cc1)N=C[C@@H]1CCCN1C2=O | < 0.01 µM | < 0.0222 µM
57 | O=C(c1ccc2ccccc2c1)c1c(C(F)(F)F)n([O-])c2ccc(F)cc2[n+]1=O | 1.8 µM | 3.41 µM
58 | COc1ccc2c(c1)/C(=N/OC(C)=O)c1c-2cnc2ccccc12 | 27.4 µM | 73.8 µM
59 | Cn1cc(-c2nc(N[C@@H]3CCCC[C@@H]3N)c(F)c3c2C(=O)NC3)cn1 | 6.47 µM and 9.22 µM | 75.5 µM and 81.1 µM
60 | O=C(/C=C/c1ccccc1)CCC1C(=O)NC(=S)NC1=O |  | > 100 µM

Test system: A498 renal
Assay: DTP human tumour cell line panel, 48 h

Row | Compound | GI50 | TGI
61 | CN1CCN(c2ccc3nc(-c4ccc(OCCCCN5CCN(CCCCN6C(=O)c7cccc8cccc(c78)C6=O)CC5)cc4)[nH]c3c2)CC1 | > 100 µM | > 100 µM
62 | NC(=O)c1ccc(N(C(N)=O)c2c(F)cccc2F)nc1-c1ccc(F)cc1F | > 45.4 µM | > 100 µM
63 | Cc1ccc(S(=O)(=O)NC(CO)C(=O)O)cc1 (stereo not drawn) |  | > 100 µM
64 | CN=C(N)N/N=C(\C)c1ccc2c(c1)Cc1ccccc1-2 | 2.89 µM | 9.21 µM
65 | Cc1cc(Nc2nc(-c3ccncc3)nc3ccccc23)n[nH]1 | 0.654 µM | 6.01 µM
66 | COc1cc2c(cc1OCCCOc1ccc(-c3nc4ccc(N5CCN(C)CC5)cc4[nH]3)cc1)N=C[C@@H]1CCCN1C2=O | < 0.01 µM | < 0.01 µM
67 | O=C(c1ccc2ccccc2c1)c1c(C(F)(F)F)n([O-])c2ccc(F)cc2[n+]1=O | 6.9 µM | 21 µM
68 | COc1ccc2c(c1)/C(=N/OC(C)=O)c1c-2cnc2ccccc12 | 29.3 µM | 82 µM
69 | Cn1cc(-c2nc(N[C@@H]3CCCC[C@@H]3N)c(F)c3c2C(=O)NC3)cn1 | 1.72 µM and 2.45 µM | 8.43 µM and 11.3 µM
70 | O=C(/C=C/c1ccccc1)CCC1C(=O)NC(=S)NC1=O |  | > 100 µM
71 | O=C(Nc1nc2ccccc2s1)c1cc(-c2ccc(F)cc2)n2nc(-c3ccccc3)cc2n1 | 1.86 µM | 5.49 µM

Test system: TK-10 renal
Assay: DTP human tumour cell line panel, 48 h

Row | Compound | GI50 | TGI
72 | CN1CCN(c2ccc3nc(-c4ccc(OCCCCN5CCN(CCCCN6C(=O)c7cccc8cccc(c78)C6=O)CC5)cc4)[nH]c3c2)CC1 | 37.4 µM | > 100 µM
73 | CC1=C(N2CC2)C(=O)c2ccccc2C1=O |  | 6.48 µM
74 | NC(=O)c1ccc(N(C(N)=O)c2c(F)cccc2F)nc1-c1ccc(F)cc1F | > 100 µM | > 100 µM
75 | Cc1ccc(S(=O)(=O)NC(CO)C(=O)O)cc1 (stereo not drawn) |  | > 100 µM
76 | H-QIYKKYRTWYRKAWKVLGKV-NH2 | 6.35 µM | 29.8 µM
77 | O=Cc1ccc(N2CCN(c3ccc(C=O)cc3)CC2)cc1 | 4.13 µM | 76.8 µM
78 | CN=C(N)N/N=C(\C)c1ccc2c(c1)Cc1ccccc1-2 | 3.18 µM | 14.8 µM
79 | Cc1cc(Nc2nc(-c3ccncc3)nc3ccccc23)n[nH]1 | 2.07 µM | > 100 µM
80 | COc1cc2c(cc1OCCCOc1ccc(-c3nc4ccc(N5CCN(C)CC5)cc4[nH]3)cc1)N=C[C@@H]1CCCN1C2=O | < 0.01 µM | 0.492 µM
81 | O=C(c1ccc2ccccc2c1)c1c(C(F)(F)F)n([O-])c2ccc(F)cc2[n+]1=O | 1.58 µM | 3.02 µM
82 | COc1ccc2c(c1)/C(=N/OC(C)=O)c1c-2cnc2ccccc12 | 20.4 µM | 54.8 µM
83 | Cn1cc(-c2nc(N[C@@H]3CCCC[C@@H]3N)c(F)c3c2C(=O)NC3)cn1 | 4.5 µM and 6.16 µM | 25.3 µM and 40.6 µM
84 | O=C(Nc1nc2ccccc2s1)c1cc(-c2ccc(F)cc2)n2nc(-c3ccccc3)cc2n1 | 2.45 µM | 5.54 µM

Test system: SNB-19 CNS
Assay: DTP human tumour cell line panel, 48 h

Row | Compound | GI50 | TGI
85 | CN1CCN(c2ccc3nc(-c4ccc(OCCCCN5CCN(CCCCN6C(=O)c7cccc8cccc(c78)C6=O)CC5)cc4)[nH]c3c2)CC1 | > 100 µM | > 100 µM
86 | CC1=C(N2CC2)C(=O)c2ccccc2C1=O |  | 6.27 µM
87 | NC(=O)c1ccc(N(C(N)=O)c2c(F)cccc2F)nc1-c1ccc(F)cc1F | > 100 µM | > 100 µM
88 | Cc1ccc(S(=O)(=O)NC(CO)C(=O)O)cc1 (stereo not drawn) |  | > 100 µM
89 | H-QIYKKYRTWYRKAWKVLGKV-NH2 | 17.5 µM | 68.6 µM
90 | O=Cc1ccc(N2CCN(c3ccc(C=O)cc3)CC2)cc1 | > 100 µM | > 100 µM
91 | CN=C(N)N/N=C(\C)c1ccc2c(c1)Cc1ccccc1-2 | 3.46 µM | 21.8 µM
92 | Cc1cc(Nc2nc(-c3ccncc3)nc3ccccc23)n[nH]1 | 83.1 µM | > 100 µM
93 | COc1cc2c(cc1OCCCOc1ccc(-c3nc4ccc(N5CCN(C)CC5)cc4[nH]3)cc1)N=C[C@@H]1CCCN1C2=O | < 0.01 µM | 17.1 µM
94 | O=C(c1ccc2ccccc2c1)c1c(C(F)(F)F)n([O-])c2ccc(F)cc2[n+]1=O | 1.51 µM | 3.02 µM
95 | COc1ccc2c(c1)/C(=N/OC(C)=O)c1c-2cnc2ccccc12 | 36.6 µM | > 100 µM
96 | Cn1cc(-c2nc(N[C@@H]3CCCC[C@@H]3N)c(F)c3c2C(=O)NC3)cn1 | 27.3 µM and 29 µM | > 100 µM
97 | O=C(/C=C/c1ccccc1)CCC1C(=O)NC(=S)NC1=O |  | > 100 µM
98 | O=C(Nc1nc2ccccc2s1)c1cc(-c2ccc(F)cc2)n2nc(-c3ccccc3)cc2n1 | 5.21 µM | > 100 µM
